Results published in paper PMC8413292, “Small-molecule polymerase inhibitor protects non-human primates from measles and reduces shedding” (Nature Communications, 2021).
“And” between values parts separate entries of the source, which are not always exact repeats. Equal entries are not always repeated.

Tested on: MV/FrankfurtMain.DEU/17.11 (genotype D8)
Experiment: White blood cell counts from whole blood
Assay type: in vivo, squirrel monkeys (Saimiri sciureus)
Details: for WBC Mean Diff, untreated vs. prophylactic / WBC Mean Diff, untreated vs. therapeutic (d7) / WBC Mean Diff, untreated vs. therapeutic(d3): Dunnett's multiple comparisons test; for Cells [10^3/mm^3], white blood cells / Cells/ml, white blood cells / Counted Cells (Total), white blood cells: individual animals
Experimental: White blood cell counts, viral load quantification in PBMCs, and quantification of neutralizing antibody titers were performed as follows: for white blood cell counts, blood was diluted 1:100 in 3% acetic acid and cells were counted using a Neubauer chamber. For viral load quantification in PBMCs, blood was centrifuged at 3000 rpm for 15 min and serum was frozen at −20 °C until further use. Red blood cell lysis was performed and the remaining PBMCs were counted using a Neubauer chamber. Viral titers in PBMCs were quantified in quadruplicates using limited dilution method and calculated as TCID50/10^6 PBMCs. Neutralizing antibody titers were quantified by incubating MeV with 2-fold serial dilutions of the respective serum for 20 min at room temperature in quadruplicates. Vero/hSLAM cells were added and incubated for 3 days at 37 °C. Neutralizing antibody titers are expressed as the reciprocal of the highest serum dilution showing no signs of infection. For virus titration from throat swabs, swabs were placed in 150 μl DMEM with 3% penicillin/streptomycin and the titer was quantified by limited dilution method.

Cn1nc(C(F)(F)F)cc1C(=O)Nc1ccc(S(=O)(=O)N2CCCC[C@H]2CCN2CCOCC2)cc1 [ERDRP-0519]
WBC Mean Diff, untreated vs. prophylactic (Row 1 (0 dpi)): 0.14 10^3cells/mm^3 | WBC Mean Diff, untreated vs. therapeutic (d7) (Row 1 (0 dpi)): 2 10^3cells/mm^3 | WBC Mean Diff, untreated vs. therapeutic(d3) (Row 1 (0 dpi)): 0.75 10^3cells/mm^3 | WBC Mean Diff, untreated vs. prophylactic (Row 2 (3 dpi)): 0.875 10^3cells/mm^3 | WBC Mean Diff, untreated vs. therapeutic (d7) (Row 2 (3 dpi)): -2.625 10^3cells/mm^3 | WBC Mean Diff, untreated vs. therapeutic(d3) (Row 2 (3 dpi)): -1.042 10^3cells/mm^3 | WBC Mean Diff, untreated vs. prophylactic (Row 3 (7 dpi)): -2.333 10^3cells/mm^3 | WBC Mean Diff, untreated vs. therapeutic (d7) (Row 3 (7 dpi)): -0.3333 10^3cells/mm^3 | WBC Mean Diff, untreated vs. therapeutic(d3) (Row 3 (7 dpi)): -1.375 10^3cells/mm^3 | WBC Mean Diff, untreated vs. prophylactic (Row 4 (10 dpi)): -1.958 10^3cells/mm^3 | WBC Mean Diff, untreated vs. therapeutic (d7) (Row 4 (10 dpi)): -0.5417 10^3cells/mm^3 | WBC Mean Diff, untreated vs. therapeutic(d3) (Row 4 (10 dpi)): -1.167 10^3cells/mm^3 | WBC Mean Diff, untreated vs. prophylactic (Row 5 (14 dpi)): -1.375 10^3cells/mm^3 | WBC Mean Diff, untreated vs. therapeutic (d7) (Row 5 (14 dpi)): -0.25 10^3cells/mm^3 | WBC Mean Diff, untreated vs. therapeutic(d3) (Row 5 (14 dpi)): -4.767 10^3cells/mm^3 | WBC Mean Diff, untreated vs. prophylactic (Row 6 (17 dpi)): -1.667 10^3cells/mm^3 | WBC Mean Diff, untreated vs. therapeutic (d7) (Row 6 (17 dpi)): -1.333 10^3cells/mm^3 | WBC Mean Diff, untreated vs. therapeutic(d3) (Row 6 (17 dpi)): -1.533 10^3cells/mm^3 | WBC Mean Diff, untreated vs. prophylactic (Row 7 (21 dpi)): -1.125 10^3cells/mm^3 | WBC Mean Diff, untreated vs. therapeutic (d7) (Row 7 (21 dpi)): -1.875 10^3cells/mm^3 | WBC Mean Diff, untreated vs. therapeutic(d3) (Row 7 (21 dpi)): -2.402 10^3cells/mm^3 | leukopenia (total white blood cell counts) (day 3 treatment group): no leukopenia was observed | total white blood cell counts (day 7 treatment group): a trend for lower total white blood cell counts, but this was not significant | leukopenia (total white blood cell counts) (prophylactic group): no leukopenia was observed | Cells [10^3/mm^3], white blood cells (prophylactic group, 0 dpi): 7.5 10^3/mm^3 and 4.5 10^3/mm^3 and 5.5 10^3/mm^3 and 2.25 10^3/mm^3 and 10.75 10^3/mm^3 | Cells/ml, white blood cells (prophylactic group, 0 dpi): 4.50E+06 Cells/ml and 5.50E+06 Cells/ml and 2.25E+06 Cells/ml and 1.08E+07 Cells/ml and 7.50E+06 Cells/ml | Counted Cells (Total), white blood cells (prophylactic group, 0 dpi): 30 and 18 and 22 and 9 and 43 | Cells [10^3/mm^3], white blood cells (prophylactic group, 3 dpi): 4.75 10^3/mm^3 (3×) and 4.25 10^3/mm^3 and 4 10^3/mm^3 and 7.25 10^3/mm^3 | Cells/ml, white blood cells (prophylactic group, 3 dpi): 4.75E+06 Cells/ml (3×) and 4.25E+06 Cells/ml and 4.00E+06 Cells/ml and 7.25E+06 Cells/ml | Counted Cells (Total), white blood cells (prophylactic group, 3 dpi): 19 (3×) and 17 and 16 and 29 | Cells [10^3/mm^3], white blood cells (prophylactic group, 7 dpi): 6 10^3/mm^3 (2×) and 7 10^3/mm^3 and 4.75 10^3/mm^3 (2×) and 6.75 10^3/mm^3 | Cells/ml, white blood cells (prophylactic group, 7 dpi): 6.00E+06 Cells/ml (2×) and 7.00E+06 Cells/ml and 4.75E+06 Cells/ml (2×) and 6.75E+06 Cells/ml | Counted Cells (Total), white blood cells (prophylactic group, 7 dpi): 24 (2×) and 28 and 19 (2×) and 27 | Cells [10^3/mm^3], white blood cells (prophylactic group, 10 dpi): 4.75 10^3/mm^3 (2×) and 6.5 10^3/mm^3 and 3 10^3/mm^3 and 3.75 10^3/mm^3 and 2 10^3/mm^3 | Cells/ml, white blood cells (prophylactic group, 10 dpi): 4.75E+06 Cells/ml (2×) and 6.50E+06 Cells/ml and 3.00E+06 Cells/ml and 3.75E+06 Cells/ml and 2.00E+06 Cells/ml | Counted Cells (Total), white blood cells (prophylactic group, 10 dpi): 19 (2×) and 26 and 12 and 15 and 8 | Cells [10^3/mm^3], white blood cells (prophylactic group, 14 dpi): 6 10^3/mm^3 and 3 10^3/mm^3 and 5 10^3/mm^3 (2×) and 3.75 10^3/mm^3 and 2.75 10^3/mm^3 | Cells/ml, white blood cells (prophylactic group, 14 dpi): 3.00E+06 Cells/ml and 5.00E+06 Cells/ml (2×) and 3.75E+06 Cells/ml and 2.75E+06 Cells/ml and 6.00E+06 Cells/ml | Counted Cells (Total), white blood cells (prophylactic group, 14 dpi): 24 and 12 and 20 (2×) and 15 and 11 | Cells [10^3/mm^3], white blood cells (prophylactic group, 17 dpi): 4.75 10^3/mm^3 and 5.25 10^3/mm^3 and 5.5 10^3/mm^3 and 3.25 10^3/mm^3 and 6.5 10^3/mm^3 and 2.25 10^3/mm^3 | Cells/ml, white blood cells (prophylactic group, 17 dpi): 5.25E+06 Cells/ml and 5.50E+06 Cells/ml and 3.25E+06 Cells/ml and 6.50E+06 Cells/ml and 2.25E+06 Cells/ml and 4.75E+06 Cells/ml | Counted Cells (Total), white blood cells (prophylactic group, 17 dpi): 19 and 21 and 22 and 13 and 26 and 9 | Cells [10^3/mm^3], white blood cells (prophylactic group, 21 dpi): 5.25 10^3/mm^3 and 3.5 10^3/mm^3 and 7.75 10^3/mm^3 and 2.25 10^3/mm^3 (2×) and 5 10^3/mm^3 | Cells/ml, white blood cells (prophylactic group, 21 dpi): 3.50E+06 Cells/ml and 7.75E+06 Cells/ml and 2.25E+06 Cells/ml (2×) and 5.00E+06 Cells/ml and 5.25E+06 Cells/ml | Counted Cells (Total), white blood cells (prophylactic group, 21 dpi): 21 and 14 and 31 and 9 (2×) and 20 | WBC group mean (Mean 2) (prophylactic group, Row 1 (0 dpi)): 6.11 10^3cells/mm^3 | WBC group mean (Mean 2) (prophylactic group, Row 2 (3 dpi)): 4.958 10^3cells/mm^3 | WBC group mean (Mean 2) (prophylactic group, Row 3 (7 dpi)): 5.875 10^3cells/mm^3 | WBC group mean (Mean 2) (prophylactic group, Row 4 (10 dpi)): 4.125 10^3cells/mm^3
